# Source: patent US10098852B2 (LAUNX BIOMEDICAL CO., LTD., priority 2014, dated 2018)
# Several values for one entry are separate records, joined by “and”; a condition that tells them apart may be missing. Equal entries are not always repeated. Where two headings read alike, the source gives them in different places.
# What was measured:
# [1] = test system: MKN-45 (Gastric Adenocarcinoma); assay: Cell viability analysis (WST-1), gastric cancer cell line MKN-45; assay type: cell-based; settings: Homo sapiens
# [2] = test system: gastric cancer cells (AGS) subcutaneous tumor; assay: Animal model test of gastric cancer: tumor size; assay type: in vivo, mice (BALB/cAnN.Cg-Foxn1nu/CrlNarl); settings: for Tumor volume growth, average / tumor volume, average: group average; for Tumor volume growth / tumor longest length / tumor volume / tumor width: individual mice A, B, C
# Description: In this invention, the female mice were (BALB/cAnN.Cg-Foxn1^nu/CrlNarl) purchased from National Laboratory Animal Center (Taiwan)). The weight of the mice were 21±1 g. These mice were subcutaneously injected with gastric cancer cells (AGS) and then put these mice into different cages at random. The drug test experiment was divided into three groups, include “control group”, “low dose group (100 mg/kg/day)”, and “high dose group (200 mg/kg/day)”. These mice were then injected test drug intraperitoneally once daily […]. The tumor sizes and body weight were measured twice a week. The tumor sizes were measured and calculated by formula: (L×W^2)/2. L represents the tumor longest length. W represents the tumor shortest diameter.
# [3] = test system: BCC (basal cell carcinoma); assay: Cell viability analysis (WST-1), skin cancer cell line BCC; assay type: cell-based
# Description: (§1) The cell numbers were counted and reseed as 2×10^6 in cell culture plate/flask. Then, the culture medium was added to a volume of 10 ml, and the cells were cultured for 2-3 days. Then, the cells were suspended for loading into 96-well plates. The cell number was 3000/well and the volume of the culture medium was 100 μl each well.
# (§2) Removing the original culture medium from 96-well plate. Then add 100 μl of commercially drug at a concentration of 10 μM per well. After 72 hours, add the diluted WST-1 reagent to the well with 100 μl/well, and the diluted WST-1 reagent was acquired from the dilution of 9:1 medium and WST-1 stock reagent. Finally, the total volume of each well was 200 μl/well. Culture the 96-well plate at 37° C. for 30 to 90 minutes. Detecting and calculate the survival rate of each cancer cells with an ELISA reader at OD450 nm.
# [4] = test system: LNCap (prostate cancer cell line); assay: Cell viability analysis (WST-1), prostate cancer cell line LNCap; assay type: cell-based; settings: Homo sapiens
# Description: as §1, §2
# pancreatic cancer cell = assay: Summary of the effect on pancreatic cancer cell (AsPC-1, BxPC-3); assay type: cell-based; settings: pancreatic cancer cell (mean of AsPC-1 and BxPC-3 averages), 72 hours, read-out: Inhibitory effect
# Description: as §2
# [5] = test system: SAS (Tongue squamous cell carcinoma); assay: Cell viability analysis (WST-1), tongue cancer cell line SAS; assay type: cell-based
# Description: as §1, §2
# various cancer cells = assay: Inhibition test on all kinds of cancer cells (overall statement); assay type: cell-based; settings: FIG. 1
# Description: as §2
# [6] = test system: A549 (lung adenocarcinoma); assay: Cell viability analysis (WST-1), lung cancer cell line A549; assay type: cell-based; settings: Homo sapiens
# hepatic cancer cell = assay: Summary of the effect on hepatic cancer cell (HepG2, Hep3B); assay type: cell-based; settings: hepatic cancer cell (mean of HepG2 and Hep3B averages), 72 hours, read-out: Inhibitory effect
# Description: as §2
# [7] = test system: BxPC-3 (pancreatic cancer cell line); assay: Cell viability analysis (WST-1), pancreatic cancer cell line BxPC-3; assay type: cell-based; settings: Homo sapiens
# Description: as §1, §2
# [8] = high dose (200 mg/kg/day) i.p. once daily, Fifth measurement
# [9] = high dose (200 mg/kg/day) i.p. once daily, First measurement
# [10] = high dose (200 mg/kg/day) i.p. once daily, First measurement, 200 mg/kg/day
# [11] = high dose (200 mg/kg/day) i.p. once daily, Fourth measurement
# [12] = high dose (200 mg/kg/day) i.p. once daily, Second measurement
# [13] = high dose (200 mg/kg/day) i.p. once daily, Second measurement, 200 mg/kg/day
# [14] = high dose (200 mg/kg/day) i.p. once daily, Third measurement
# [15] = high dose (200 mg/kg/day) i.p. once daily, Third measurement, 200 mg/kg/day
# [16] = low dose (100 mg/kg/day) i.p. once daily, Fifth measurement
# [17] = low dose (100 mg/kg/day) i.p. once daily, Fifth measurement, 100 mg/kg/day
# [18] = low dose (100 mg/kg/day) i.p. once daily, First measurement
# [19] = low dose (100 mg/kg/day) i.p. once daily, First measurement, 100 mg/kg/day
# [20] = low dose (100 mg/kg/day) i.p. once daily, Fourth measurement
# [21] = low dose (100 mg/kg/day) i.p. once daily, Fourth measurement, 100 mg/kg/day
# [22] = low dose (100 mg/kg/day) i.p. once daily, Second measurement
# [23] = low dose (100 mg/kg/day) i.p. once daily, Second measurement, 100 mg/kg/day
# [24] = low dose (100 mg/kg/day) i.p. once daily, Third measurement
# [25] = low dose (100 mg/kg/day) i.p. once daily, Third measurement, 100 mg/kg/day
smiles,measurement,setting,value
Oc1ccc(OCc2ccccc2)cc1 [Monobenzone],viability at 10 µM,"[1]; MKN-45, 72 h, MKN-45, 10 μM, average of 4 tests, read-out: inhibition effect (survival rate of cells), average",97.2%
same,viability at 10 µM,"[1]; MKN-45, MKN-45, 10 μM, 72 hours, test 0510-10 min, read-out: inhibition effect (survival rate of cells)",89.2%
same,viability at 10 µM,"[1]; MKN-45, MKN-45, 10 μM, 72 hours, test 0512-10 min, read-out: inhibition effect (survival rate of cells)",107%
same,viability at 10 µM,"[1]; MKN-45, MKN-45, 10 μM, 72 hours, test 0517-10 min, read-out: inhibition effect (survival rate of cells)",91.3%
same,inhibition effect on tumor cells (in words),"[2]; both low dose (100 mg/kg/day) and high dose (200 mg/kg/day), FIG. 2",significant inhibition effect on tumor cells
same,"Tumor volume growth, average",[2]; [8],0 mm3
same,"tumor volume, average",[2]; [8],0 mm3
same,Tumor volume growth,[2]; [8],0 mm3
same,tumor longest length,[2]; [8],0 mm
same,tumor volume,[2]; [8],0 mm3
same,tumor width,[2]; [8],0 mm
same,"Tumor volume growth, average",[2]; [9],25.67 mm3
same,"tumor volume, average",[2]; [9],25.67 mm3
same,Tumor volume growth,[2]; [10],18 mm3 and 27 mm3 and 32 mm3
same,tumor longest length,[2]; [10],4 mm (2×) and 6 mm
same,tumor volume,[2]; [10],18 mm3 and 27 mm3 and 32 mm3
same,tumor width,[2]; [10],3 mm (2×) and 4 mm
same,"Tumor volume growth, average",[2]; [11],−50 mm3
same,"tumor volume, average",[2]; [11],0 mm3
same,tumor longest length,[2]; [11],0 mm
same,tumor volume,[2]; [11],0 mm3
same,tumor width,[2]; [11],0 mm
same,Tumor volume growth,"[2]; high dose (200 mg/kg/day) i.p. once daily, Fourth measurement, 200 mg/kg/day",−87.5 mm3 and −62.5 mm3 and 0 mm3
same,"Tumor volume growth, average",[2]; [12],57.67 mm3
same,"tumor volume, average",[2]; [12],83.33 mm3
same,tumor width,[2]; [12],5 mm
same,Tumor volume growth,[2]; [13],69.5 mm3 and 48 mm3 and 55.5 mm3
same,tumor longest length,[2]; [13],7 mm (2×) and 6 mm
same,tumor volume,[2]; [13],87.5 mm3 (2×) and 75 mm3
same,"Tumor volume growth, average",[2]; [14],−33.3333 mm3
same,"tumor volume, average",[2]; [14],50 mm3
same,Tumor volume growth,[2]; [15],0 mm3 and −12.5 mm3 and −87.5 mm3
same,tumor longest length,[2]; [15],7 mm and 5 mm and 0 mm
same,tumor volume,[2]; [15],87.5 mm3 and 62.5 mm3 and 0 mm3
same,tumor width,[2]; [15],5 mm (2×) and 0 mm
same,effect on tumor volume growth (in words),"[2]; high dose (200 mg/kg/day), FIG. 3","effectively slow down the tumor volume growth, and can also reduce the tumor volume"
same,"Tumor volume growth, average",[2]; [16],2.667 mm3
same,"tumor volume, average",[2]; [16],22 mm3
same,Tumor volume growth,[2]; [17],0 mm3 (2×) and 8 mm3
same,tumor longest length,[2]; [17],4 mm and 6 mm and 0 mm
same,tumor volume,[2]; [17],18 mm3 and 48 mm3 and 0 mm3
same,tumor width,[2]; [17],3 mm and 4 mm and 0 mm
same,"Tumor volume growth, average",[2]; [18],176.3333 mm3
same,"tumor volume, average",[2]; [18],176.3333 mm3
same,Tumor volume growth,[2]; [19],256 mm3 and 147 mm3 and 126 mm3
same,tumor longest length,[2]; [19],8 mm and 6 mm and 7 mm
same,tumor volume,[2]; [19],256 mm3 and 147 mm3 and 126 mm3
same,tumor width,[2]; [19],8 mm and 7 mm and 6 mm
same,"Tumor volume growth, average",[2]; [20],−88 mm3
same,"tumor volume, average",[2]; [20],19.33 mm3
same,Tumor volume growth,[2]; [21],−108 mm3 and −68 mm3 and −88 mm3
same,tumor longest length,[2]; [21],4 mm and 5 mm and 0 mm
same,tumor volume,[2]; [21],18 mm3 and 40 mm3 and 0 mm3
same,tumor width,[2]; [21],3 mm and 4 mm and 0 mm
same,"Tumor volume growth, average",[2]; [22],−77.5 mm3
same,"tumor volume, average",[2]; [22],98.83 mm3
same,Tumor volume growth,[2]; [23],−130 mm3 and −39 mm3 and −63.5 mm3
same,tumor longest length,[2]; [23],7 mm and 6 mm and 5 mm
same,tumor volume,[2]; [23],126 mm3 and 108 mm3 and 62.5 mm3
same,tumor width,[2]; [23],6 mm (2×) and 5 mm
same,"Tumor volume growth, average",[2]; [24],0 mm3
same,"tumor volume, average",[2]; [24],98.83 mm3
same,Tumor volume growth,[2]; [24],0 mm3
same,tumor longest length,[2]; [25],7 mm and 6 mm and 5 mm
same,tumor volume,[2]; [25],126 mm3 and 108 mm3 and 62.5 mm3
same,tumor width,[2]; [25],6 mm (2×) and 5 mm
same,viability at 10 µM,"[3]; 72 h, average of 4 tests, read-out: inhibition effect (survival rate of cells), Average",50.1%
same,viability at 10 µM,"[3]; 72 hours, test 0602-30 min, read-out: inhibition effect (survival rate of cells)",48.2%
same,viability at 10 µM,"[3]; 72 hours, test 0605-10 min, read-out: inhibition effect (survival rate of cells)",59.8%
same,viability at 10 µM,"[3]; 72 hours, test 0607-10 min, read-out: inhibition effect (survival rate of cells)",38.6%
same,viability at 10 µM,"[3]; 72 hours, test 0609-10 min, read-out: inhibition effect (survival rate of cells)",53.8%
same,viability at 10 µM,"[4]; 72 h, average of 4 tests, read-out: inhibition effect (survival rate of cells), average",67.9%
same,viability at 10 µM,"[4]; 72 hours, test LNCap-1-10 min, read-out: inhibition effect (survival rate of cells)",65.5%
same,viability at 10 µM,"[4]; 72 hours, test LNCap-2-20 min, read-out: inhibition effect (survival rate of cells)",52.7%
same,viability at 10 µM,"[4]; 72 hours, test LNCap-3-20 min, read-out: inhibition effect (survival rate of cells)",81.6%
same,viability at 10 µM,"[4]; 72 hours, test LNCap-4-20 min, read-out: inhibition effect (survival rate of cells)",71.6%
same,viability at 10 µM,pancreatic cancer cell,86.8%
same,viability at 10 µM,"[5]; 72 h, SAS, average of 4 tests, read-out: inhibition effect (survival rate of cells), average",90.3%
same,viability at 10 µM,"[5]; 72 h, tongue cancer cell (SAS average), read-out: Inhibitory effect",90.3%
same,viability at 10 µM,"[5]; SAS, 72 hours, test 6-26-10 min, read-out: inhibition effect (survival rate of cells)",97.3%
same,viability at 10 µM,"[5]; SAS, 72 hours, test 6-28-10 min, read-out: inhibition effect (survival rate of cells)",59.4%
same,viability at 10 µM,"[5]; SAS, 72 hours, test 6-30-10 min, read-out: inhibition effect (survival rate of cells)",89.6%
same,viability at 10 µM,"[5]; SAS, 72 hours, test 7-3-10 min, read-out: inhibition effect (survival rate of cells)",115%
same,inhibitory effect and specificity on various cancer cells (in words),various cancer cells,significant inhibitory effect and specificity on various cancer cells
same,viability at 10 µM,"[6]; A549, 72 h, A549, 10 μM, average of 4 tests, read-out: inhibition effect (survival rate of cells), Average",93.4%
same,viability at 10 µM,"[6]; A549, A549, 10 μM, 72 hours, test 0524-10 min, read-out: inhibition effect (survival rate of cells)",80.8%
same,viability at 10 µM,"[6]; A549, A549, 10 μM, 72 hours, test 0526-10 min, read-out: inhibition effect (survival rate of cells)",111%
same,viability at 10 µM,"[6]; A549, A549, 10 μM, 72 hours, test 0529-10 min, read-out: inhibition effect (survival rate of cells)",80.8%
same,viability at 10 µM,hepatic cancer cell,95.4%
same,viability at 10 µM,"[7]; BXPC-3, 72 h, BxPC-3, 10 μM, average of 4 tests, read-out: inhibition effect (survival rate of cells), average",78.6%
same,viability at 10 µM,"[7]; BXPC-3, BxPC-3, 10 μM, 72 hours, test 3-4-30 min, read-out: inhibition effect (survival rate of cells)",86.3%
same,viability at 10 µM,"[7]; BXPC-3, BxPC-3, 10 μM, 72 hours, test 3-7-3-30 min, read-out: inhibition effect (survival rate of cells)",57.4%
same,viability at 10 µM,"[7]; BXPC-3, BxPC-3, 10 μM, 72 hours, test 3-7-4-30 min, read-out: inhibition effect (survival rate of cells)",100%
same,viability at 10 µM,"[7]; BXPC-3, BxPC-3, 10 μM, 72 hours, test 3-7-7-30 min, read-out: inhibition effect (survival rate of cells)",70.7%
